Measurements reported in patent publication US12509462B2, “3-(phenylsulfonyl)-[1,2,3]triazolo[1,5A]quinazolin-5(4H)-one derivatives” (BIOVERSYS AG, priority 2018, dated 2025).
Converted amounts (≈) assume the structure as drawn. Read-outs that look alike come from different tables or passages of the source.

Columns and labels:
[1] = test system: Staphylococcus aureus MRSA strain (USA300 isolate); test: Hemolysis Assay II (exotoxin-mediated lysis of rabbit red blood cells by culture filtrate); assay type: cell-based; conditions: Erythrocyte; for minimal effective concentration / IC95: 18 h; for minimal effective concentration: absorbance <2× the average of the complete inhibition control, read-out: Hemolysis assay II MEC (minimal effective concentration); for IC95: read-out: Hemolysis assay II IC95; for IC50: 18 h culture in CA-MHB, rabbit red blood cells
HepG2 = conditions: 48 h
MRSA = test: MIC by broth microdilution in CA-MHB (CLSI); conditions: Staphylococcus aureus, 18 h, read-out: MIC on MRSA
Experimental: Minimal inhibitory concentrations (MIC) were determined by broth microdilution method in cation-adjusted Mueller-Hinton (CA-MHB) broth according to the CLSI guideline. From an overnight culture plate, cells were resuspended in 0.9% (w/v) saline solution and bacterial inoculum was prepared in CA-MHB with 5×10^5 CFU/ml. Compounds were two-fold serially diluted in CA-MHB and 10 μL of this 10× concentrated samples were added into the 96-well plate. 90 μL of bacterial suspension was finally added to the compounds. Plates were covered and incubated without shaking at 35° C. for 18 hours. Every experiment contained an antibiotic as quality control. MIC was determined visually as the lowest concentration of a compound that prevents visible growth of the bacteria and the plates were scanned for documentation.

MRSA (USA300 isolate) = test: Hemolysis Assay I (exotoxin-mediated lysis of rabbit red blood cells by culture supernatant); assay type: cell-based, Staphylococcus aureus; conditions: Staphylococcus aureus, Erythrocyte, 30/10/3.3/1.1/0.37 μM compound, values at OD600 of 0.75

| Compound | minimal effective concentration [1] | IC95 [1] | IC50 [1] | LD50 HepG2 (HepG2; human) | MIC (MRSA) | IC50 (MRSA (USA300 isolate)) | LD50 HepG2 (HepG2; compounds 0.8-100 μM, SEAP readout) |
| --- | --- | --- | --- | --- | --- | --- | --- |
| Cc1ccc(S(=O)(=O)c2nnn3c2[nH]c(=O)c2ccccc23)c(Br)c1 [Compound 37, 3-(2-Bromo-4-methyl-phenyl)sulfonyl-4H-triazolo[1,5-a]quinazolin-5-one] | 4 µg/mL | 3.65 µg/mL (≈ 8.71 µM) | 1.25 µg/mL (≈ 2.98 µM) | >=100 μM | ≥ 100 µM | 1500 nM | – |
| Cc1ccc(S(=O)(=O)c2nnn3c2[nH]c(=O)c2ccc(I)cc23)c(C)c1 [Compound 42, 3-(2,4-dimethylphenyl)sulfonyl-8-iodo-4H-triazolo[1,5-a]quinazolin-5-one] | 6 µg/mL | 10.1 µg/mL (≈ 20.9 µM) | 2.05 µg/mL (≈ 4.27 µM) | >=100 μM | ≥ 100 µM | – | – |
| CCc1ccc(S(=O)(=O)c2nnn3c2[nH]c(=O)c2ccc(OC)cc23)c(C)c1 [Compound 28, 3-(4-ethyl-2-methyl-phenyl)sulfonyl-8-methoxy-4H-triazolo[1,5-a]quinazolin-5-one] | 8 µg/mL | 4.5 µg/mL (≈ 11.3 µM) | 2 µg/mL (≈ 5.02 µM) | >=100 μM | ≥ 100 µM | – | – |
| Cc1ccc(S(=O)(=O)c2nnn3c2[nH]c(=O)c2ccc(O)cc23)c(C)c1 [Compound 36, 3-(2,4-dimethylphenyl)sulfonyl-8-hydroxy-4H-triazolo[1,5-a]quinazolin-5-one] | 4 µg/mL | 4.5 µg/mL (≈ 12.1 µM) | 1.7 µg/mL (≈ 4.59 µM) | >=100 μM | ≥ 100 µM | 2800 nM | – |
| COCCOc1cc2c(cc1O)c(=O)[nH]c1c(S(=O)(=O)c3ccc(C)cc3C)nnn12 [Compound 58, 3-(2,4-dimethylphenyl)sulfonyl-7-hydroxy-8-(2-methoxyethoxy)-4H-triazolo[1,5-a]quinazolin-5-one] | 4 µg/mL | 4.1 µg/mL (≈ 9.22 µM) | 0.9 µg/mL (≈ 2.02 µM) | >=100 μM | ≥ 100 µM | – | – |
| Cc1cc(C)c(S(=O)(=O)c2nnn3c2[nH]c(=O)c2ccccc23)c(Br)c1 [Compound 52, 3-(2-bromo-4,6-dimethyl-phenyl)sulfonyl-4H-triazolo[1,5-a]quinazolin-5-one] | 6 µg/mL | 6.1 µg/mL (≈ 14.1 µM) | 1.95 µg/mL (≈ 4.5 µM) | >=100 μM | ≥ 100 µM | – | – |
| Cc1ccc(S(=O)(=O)c2nnn3c2[nH]c(=O)c2ccc(N4CCC4)cc23)c(C)c1 [Compound 45, 8-(azetidin-1-yl)-3-(2,4-dimethylphenyl)sulfonyl-4H-triazolo[1,5-a]quinazolin-5-one] | 6 µg/mL | 8.85 µg/mL (≈ 21.6 µM) | 1.7 µg/mL (≈ 4.15 µM) | – | ≥ 100 µM | – | >=100 μM |
| Cc1ccc(S(=O)(=O)c2nnn3c2[nH]c(=O)c2ccc(F)cc23)c(C)c1 [Compound 7, 3-(2,4-dimethylphenyl)sulfonyl-8-fluoro-4H-triazolo[1,5-a]quinazolin-5-one] | 4 µg/mL | 4.8 µg/mL (≈ 12.9 µM) | 1.7 µg/mL (≈ 4.57 µM) | >=100 μM | ≥ 100 µM | – | – |
| COCCCOc1ccc2c(=O)[nH]c3c(S(=O)(=O)c4ccc(C)cc4C)nnn3c2c1 [Compound 40, 3-(2,4-dimethylphenyl)sulfonyl-8-(3-methoxypropoxy)-4H-triazolo[1,5-a]quinazolin-5-one] | 3 µg/mL | 4.4 µg/mL (≈ 9.94 µM) | 1.05 µg/mL (≈ 2.37 µM) | >=100 μM | ≥ 100 µM | – | – |
| CC(C)c1ccc(S(=O)(=O)c2nnn3c2[nH]c(=O)c2c(Cl)cccc23)cc1 [Compound 8, 6-chloro-3-(4-isopropylphenyl)sulfonyl-4H-triazolo[1,5-a]quinazolin-5-one] | 4 µg/mL | 3.8 µg/mL (≈ 9.43 µM) | 2.2 µg/mL (≈ 5.46 µM) | >=100 μM | ≥ 100 µM | – | – |
| Cc1cc(C)c(S(=O)(=O)c2nnn3c2[nH]c(=O)c2ccccc23)c(Cl)c1 [Compound 51, 3-(2-chloro-4,6-dimethyl-phenyl)sulfonyl-4H-triazolo[1,5-a]quinazolin-5-one] | 6 µg/mL | 5.25 µg/mL (≈ 13.5 µM) | 1.9 µg/mL (≈ 4.89 µM) | >=100 μM | ≥ 100 µM | – | – |
| COc1ccc2c(=O)[nH]c3c(S(=O)(=O)c4ccc(C5CC5)cc4)nnn3c2c1 [Compound 21, 3-(4-cyclopropylphenyl)sulfonyl-8-methoxy-4H-triazolo[1,5-a]quinazolin-5-one] | 4 µg/mL | 3.4 µg/mL (≈ 8.58 µM) | 1.5 µg/mL (≈ 3.78 µM) | >=100 μM | ≥ 100 µM | – | – |
| COCCOc1ccc2c(=O)[nH]c3c(S(=O)(=O)c4ccc(C)cc4C)nnn3c2c1 [Compound 43, 3-(2,4-dimethylphenyl)sulfonyl-8-(2-methoxyethoxy)-4H-triazolo[1,5-a]quinazolin-5-one] | 2 µg/mL | 3.5 µg/mL (≈ 8.17 µM) | 0.8 µg/mL (≈ 1.87 µM) | >=100 μM | ≥ 100 µM | – | – |
| COC(=O)CCCOc1ccc2c(=O)[nH]c3c(S(=O)(=O)c4ccc(C)cc4C)nnn3c2c1 [Compound 55, methyl 4-[[3-(2,4-dimethylphenyl)sulfonyl-5-oxo-4H-triazolo[1,5-a]quinazolin-8-yl]oxy]butanoate] | 3 µg/mL | 2.45 µg/mL (≈ 5.21 µM) | 1 µg/mL (≈ 2.13 µM) | >=100 μM | ≥ 100 µM | – | – |
| Cc1ccc(S(=O)(=O)c2nnn3c2[nH]c(=O)c2ccccc23)c(Cl)c1 [Compound 35, 3-(2-chloro-4-methyl-phenyl)sulfonyl-4H-triazolo[1,5-a]quinazolin-5-one] | 4 µg/mL | 3.7 µg/mL (≈ 9.87 µM) | 1.25 µg/mL (≈ 3.34 µM) | >=100 μM | ≥ 100 µM | 1500 nM | – |
| Cc1ccc(S(=O)(=O)c2nnn3c2[nH]c(=O)c2ccc(OCCO)cc23)c(C)c1 [Compound 53, 3-(2,4-dimethylphenyl)sulfonyl-8-(2-hydroxyethoxy)-4H-triazolo[1,5-a]quinazolin-5-one] | 2 µg/mL | 2.2 µg/mL (≈ 5.31 µM) | 0.7 µg/mL (≈ 1.69 µM) | >=100 μM | ≥ 100 µM | – | – |
| Cc1ccc(S(=O)(=O)c2nnn3c2[nH]c(=O)c2cc(O)ccc23)c(C)c1 [Compound 46, 3-(2,4-dimethylphenyl)sulfonyl-7-hydroxy-4H-triazolo[1,5-a]quinazolin-5-one] | 1 µg/mL | 1.4 µg/mL (≈ 3.78 µM) | 0.4 µg/mL (≈ 1.08 µM) | >=100 μM | ≥ 100 µM | – | – |
| Cc1ccc(S(=O)(=O)c2nnn3c2[nH]c(=O)c2cc(Cl)ccc23)c(C)c1 [Compound 1, 7-chloro-3-(2,4-dimethylphenyl)sulfonyl-4H-triazolo[1,5-a]quinazolin-5-one] | 4 µg/mL | 2.95 µg/mL (≈ 7.59 µM) | 1.1 µg/mL (≈ 2.83 µM) | >=100 μM | ≥ 100 µM | – | – |
| COCCOCCOCCOc1ccc2c(=O)[nH]c3c(S(=O)(=O)c4ccc(C)cc4C)nnn3c2c1 [Compound 59, 3-(2,4-dimethylphenyl)sulfonyl-8-[2-[2-(2-methoxyethoxy)ethoxy]ethoxy]-4H-triazolo[1,5-a]quinazolin-5-one] | 8 µg/mL | 6.5 µg/mL (≈ 12.6 µM) | 2.6 µg/mL (≈ 5.03 µM) | >=100 μM | ≥ 100 µM | – | – |
| Cc1ccc(S(=O)(=O)c2nnn3c2[nH]c(=O)c2cccc(O)c23)c(C)c1 [Compound 50, 3-(2,4-dimethylphenyl)sulfonyl-9-hydroxy-4H-triazolo[1,5-a]quinazolin-5-one] | 3 µg/mL | 3.75 µg/mL (≈ 10.1 µM) | 1.05 µg/mL (≈ 2.83 µM) | >=100 μM | ≥ 100 µM | – | – |
| Cc1ccc(S(=O)(=O)c2nnn3c2[nH]c(=O)c2ccc(Br)cc23)c(C)c1 [Compound 38, 8-bromo-3-(2,4-dimethylphenyl)sulfonyl-4H-triazolo[1,5-a]quinazolin-5-one] | 4 µg/mL | 4.6 µg/mL (≈ 10.6 µM) | 1.4 µg/mL (≈ 3.23 µM) | >=100 μM | 50 µM (≈ 21.7 µg/mL) | – | – |
| COc1cccc2c(=O)[nH]c3c(S(=O)(=O)c4ccc(C)cc4C)nnn3c12 [Compound 47, 3-(2,4-dimethylphenyl)sulfonyl-9-methoxy-4H-triazolo[1,5-a]quinazolin-5-one] | 2 µg/mL | 1.95 µg/mL (≈ 5.07 µM) | 0.5 µg/mL (≈ 1.3 µM) | >=100 μM | ≥ 100 µM | – | – |
| COc1cccc2c1c(=O)[nH]c1c(S(=O)(=O)c3ccc(C)cc3C)nnn12 [Compound 39, 3-(2,4-dimethylphenyl)sulfonyl-6-methoxy-4H-triazolo[1,5-a]quinazolin-5-one] | 4 µg/mL | 3.25 µg/mL (≈ 8.45 µM) | 0.8 µg/mL (≈ 2.08 µM) | >=100 μM | ≥ 100 µM | 800 nM | – |
| Cc1ccc(S(=O)(=O)c2nnn3c2[nH]c(=O)c2ccc(OCC4COC(C)(C)O4)cc23)c(C)c1 (stereo not shown) [Compound 60, 8-[(2,2-dimethyl-1,3-dioxolan-4-yl)methoxy]-3-(2,4-dimethylphenyl)sulfonyl-4H-triazolo[1,5-a]quinazolin-5-one] | 3 µg/mL | 3.05 µg/mL (≈ 6.29 µM) | 1 µg/mL (≈ 2.06 µM) | >=100 μM | ≥ 100 µM | – | – |
